Holding throughout (assay type): cell-based, human
One assay concerns GBM cells. The assay can be described thus: Lipid droplet (BODIPY 493/503) number and TG (TLC) levels in GBM cells. The settings on record: 24 hours; for LDs/TG levels: concurrently inhibiting DGAT1 and DGAT2 (A-922500 + PF-06424439), vs DGAT1 inhibition alone; for number of LDs and levels of TG: single inhibitor, 20 μg/ml, all examined GBM cells. The protocol:
(A) RT-qPCR analysis of DGAT1 vs. DGAT2 mRNA expression in GBM cells (U251 and GBM30) and in liver cancer cell line (HepG2). The results are shown as mean±SD (n=3). Statistical significance was determined by a paired Student's t-test. *P<0.01; n.s., not significant. (B) Representative fluorescence imaging of LDs stained with BODIPY 493/503 (green) (upper panels) and TLC analysis of TG levels (lower panels) in GBM and liver cancer cells after treatments with the DGAT1 inhibitor A-922500 (20 μg/ml) or DGAT2 inhibitor PF-06424439 ([…]) alone or in combination for 24 hr. Nuclei were stained with Hoechst 33342 (blue). Scale bar, 10 m. LDs were quantified by the ImageJ software in more than 30 cells in each treatment group (mean±SEM). TG levels were quantified by the ImageJ software and normalized to the untreated control group (mean±SD, n=3). Statistical significance was determined by one-way ANOVA. * P<0.001; #P<0.05. (C) Percentage of dead GBM or liver cancer cells after treatment with DGAT1 or DGAT2 inhibitors alone or in combination for 3 days as in panel B. Live and dead cells were counted after trypan blue staining (mean SD, n=3). Statistical significance was determined by one-way ANOVA. * P<0.0001. (D) Western blot analysis of DGAT1 expression in membrane extracts from GBM and liver cancer cells after infection with shRNA-expressing lentivirus against DGAT1 for 48 hr. […] Statistical significance was determined by one-way ANOVA. * P<0.01. (F) Representative fluorescence images of LDs stained with BODIPY 493/503 (upper panels) and TLC analysis of TG levels (lower panels) in GBM and liver cancer cells after lentivirus-mediated shRNA knockdown of DGAT1 or DGAT2 alone or in combination for 48 hr. […] Quantification and significance analysis of LDs and TG levels in different groups were the same as in panel B. * P<0.001; #P<0.05. […] Cell death percentage and significance were determined as in panel c (mean±SD, n=3). *P<0.0001; #P<0.001.
(A) RT-qPCR analysis of DGAT1 vs. DGAT2 mRNA levels in different types of cancer cell lines using 3 pairs of different primers. […] Statistical significance was determined by Student's t-test. *P<0.01. (B) Representative fluorescence imaging of LDs stained with BODIPY 493/503 (green) (upper panels) and TLC analysis of TG levels (lower panels) in GBM cells after treatment with the DGAT1 inhibitor A-922500 (20 μg/ml) or DGAT2 inhibitor PF-06424439 (20 μg/ml) for 24 hr. […] LDs were quantified by the ImageJ software in more than 30 cells in each treatment group (mean±SEM). TG levels were quantified by the ImageJ software and normalized to control group (mean±SD, n=3). Statistical significance was determined by one-way ANOVA. *P<0.001; #P<0.05. […] Statistical significance was determined by one-way ANOVA. *P<0.001. […]

Assay [1] has as its system HepG2 cells. Briefly: Lipid droplet and TG levels in liver cancer cell line HepG2. The protocol: (A) RT-qPCR analysis of DGAT1 vs. DGAT2 mRNA expression in GBM cells (U251 and GBM30) and in liver cancer cell line (HepG2). The results are shown as mean±SD (n=3). Statistical significance was determined by a paired Student's t-test. *P<0.01; n.s., not significant. (B) Representative fluorescence imaging of LDs stained with BODIPY 493/503 (green) (upper panels) and TLC analysis of TG levels (lower panels) in GBM and liver cancer cells after treatments with the DGAT1 inhibitor A-922500 (20 μg/ml) or DGAT2 inhibitor PF-06424439 ([…]) alone or in combination for 24 hr. Nuclei were stained with Hoechst 33342 (blue). Scale bar, 10 m. LDs were quantified by the ImageJ software in more than 30 cells in each treatment group (mean±SEM). TG levels were quantified by the ImageJ software and normalized to the untreated control group (mean±SD, n=3). Statistical significance was determined by one-way ANOVA. * P<0.001; #P<0.05. (C) Percentage of dead GBM or liver cancer cells after treatment with DGAT1 or DGAT2 inhibitors alone or in combination for 3 days as in panel B. Live and dead cells were counted after trypan blue staining (mean SD, n=3). Statistical significance was determined by one-way ANOVA. * P<0.0001. (D) Western blot analysis of DGAT1 expression in membrane extracts from GBM and liver cancer cells after infection with shRNA-expressing lentivirus against DGAT1 for 48 hr. PDIA1, an ER protein marker, was used as an internal control. (E) RT-qPCR analysis of DGAT2 mRNA expression in GBM and liver cancer cells after infection with shRNA-expressing lentivirus against DGAT2 for 48 hr. The expression level was normalized to control cells and shown as mean±SD (n=3). Statistical significance was determined by one-way ANOVA. * P<0.01. (F) Representative fluorescence images of LDs stained with BODIPY 493/503 (upper panels) and TLC analysis of TG levels (lower panels) in GBM and liver cancer cells after lentivirus-mediated shRNA knockdown of DGAT1 or DGAT2 alone or in combination for 48 hr. Scale bar, 10 m. Quantification and significance analysis of LDs and TG levels in different groups were the same as in panel B. * P<0.001; #P<0.05. (G) Percentage of dead GBM or liver cancer cells after lentivirus-mediated shRNA knockdown of DGAT1 or DGAT2 alone or in combination for 4 days. Cell death percentage and significance were determined as in panel c (mean±SD, n=3). *P<0.0001; #P<0.001. […]
For live cells, lipid droplets were stained with BODIPY 493/503 ([…]) (Cat #D-3922; Life Technologies) for 30 min and visualized by confocal microscopy (Carl Zeiss LSM510 Meta, 63×/1.4 NA oil). More than 30 cells were analyzed and LD numbers were quantified with the Image J software (NIH) in a 3D stack, as previously described in Geng 2016. […]

The subject of assay [2] is HepG2 cells. The assay can be described thus: HepG2 cell death, trypan blue counting. Particulars: DGAT1 and DGAT2 inhibitors alone or in combination, 3 days. On the procedure: (A) RT-qPCR analysis of DGAT1 vs. DGAT2 mRNA expression in GBM cells (U251 and GBM30) and in liver cancer cell line (HepG2). The results are shown as mean±SD (n=3). Statistical significance was determined by a paired Student's t-test. *P<0.01; n.s., not significant. (B) Representative fluorescence imaging of LDs stained with BODIPY 493/503 (green) (upper panels) and TLC analysis of TG levels (lower panels) in GBM and liver cancer cells after treatments with the DGAT1 inhibitor A-922500 (20 μg/ml) or DGAT2 inhibitor PF-06424439 ([…]) alone or in combination for 24 hr. Nuclei were stained with Hoechst 33342 (blue). Scale bar, 10 m. LDs were quantified by the ImageJ software in more than 30 cells in each treatment group (mean±SEM). TG levels were quantified by the ImageJ software and normalized to the untreated control group (mean±SD, n=3). Statistical significance was determined by one-way ANOVA. * P<0.001; #P<0.05. (C) Percentage of dead GBM or liver cancer cells after treatment with DGAT1 or DGAT2 inhibitors alone or in combination for 3 days as in panel B. Live and dead cells were counted after trypan blue staining (mean SD, n=3). Statistical significance was determined by one-way ANOVA. * P<0.0001. […] Statistical significance was determined by one-way ANOVA. * P<0.01. […] Cell death percentage and significance were determined as in panel c (mean±SD, n=3). *P<0.0001; #P<0.001. […]

The mark [3] stands for this setting: inhibition of both enzymes (A-922500 + PF-06424439).
[4] abbreviates: single inhibitor, 20 μg/ml, 24 hr.

From patent US20240148679A1, “METHODS AND COMPOSITIONS RELATED TO TREATMENT AND PREVENTION OF CANCER BY INHIBITION OF DGAT1 AND DGAT2” (Ohio State Innovation Foundation, priority 2019, published 2024) come the findings set out here.

In the case of `CS(=O)(=O)O.O=C([C@@H]1CCCN(c2ccc3[nH]c(C4(n5cc(Cl)cn5)CC4)nc3n2)C1)N1CCCC1` [PF-06424439], the LDs/TG levels result in the assay with GBM cells is “did not result in further reduction”; in the assay on HepG2 cells [1] (setting [3]) it was “strongly reduce”; with HepG2 cells [1] (setting [4]) it was “only slightly decreased”. In addition, in the assay on GBM cells, the “number of LDs and levels of TG” value was “minor reduction”. Moreover, the “cell death of HepG2 cells” value in the assay with HepG2 cells [2] is listed as “inhibition of both enzymes was required for cell death”.
Regarding `O=C(Nc1ccccc1)Nc1ccc(-c2ccc(C(=O)[C@@H]3CCC[C@H]3C(=O)O)cc2)cc1` [A-922500], the LDs/TG levels result in the assay on GBM cells is recorded as “did not result in further reduction”; in the assay with HepG2 cells [1] (setting [3]) it was “strongly reduce”; in the assay with HepG2 cells [1] (setting [4]), “only slightly decreased”. The “number of LDs and levels of TG” value with GBM cells was “dramatically reduced the number of LDs”. In addition, in the assay with HepG2 cells [2], the “cell death of HepG2 cells” value is given as “inhibition of both enzymes was required for cell death”.
